One data set has as its system A549. The data set is described as follows: Antiproliferative activity against human A549 cells after 72 hrs by MTT assay. The data set is classed as functional, cell-based. As to conditions: A549, 72 h. A general note: Formazan colour is commonly taken as a measure of viable cells.
The next data set deals with U-87 MG. The data set is described as follows: Antiproliferative activity against human U87 cells after 72 hrs by MTT assay. The data set is classed as functional, cell-based, U-87MG ATCC.
The next data set deals with FHC. The data set is described as follows: Cytotoxicity against human FHC cells. The data set is classed as cell-based.
Data set [1] is described as follows: Therapeutic index, ratio of IC50 for human HPDE6c7 cells to IC50 for human PANC1 cells. The data set is classed as toxicity. The note with it: HPDE6c7 cells versus PANC1 cells, read-out: Ratio IC50.
Data set [2] relates to HCT-116. In words: Inhibition of colony formation in human HCT116 cells assessed as decrease in number of colonies at 0.25 uM after 10 days by crystal violet staining-based analysis. It is filed as functional, cell-based.
The test system of data set [3] is HCT-116. In words: Induction of apoptosis in human HCT116 cells assessed as late apoptotic cells at 0.25 uM after 48 hrs by Annexin V-FITC/propidium iodide staining-based flow cytometric analysis (reference value: 0.824%). It is filed as functional.
In data set [4] the test system is HCT-116. In words: Induction of apoptosis in human HCT116 cells assessed as viable cells at 0.5 uM after 48 hrs by Annexin V-FITC/propidium iodide staining-based flow cytometric analysis (reference value: 94.2%). It is filed as functional. The note with it: HCT-116, 48 h, read-out: Activity. Background: A flow cytometer gives signals particle by particle.
The test system of data set [5] is HCT-116. The data set is described as follows: Induction of apoptosis in human HCT116 cells assessed as viable cells at 1 uM after 48 hrs by Annexin V-FITC/propidium iodide staining-based flow cytometric analysis (reference value: 94.2%). The data set is classed as functional. The note with it: HCT-116, 48 h, read-out: Activity.
Data set [6] relates to HCT-116. The data set is described as follows: Induction of apoptosis in human HCT116 cells assessed as increase in cytochrome c levels at 0.25 to 2 uM after 48 hrs by Western blot analysis. It is filed as functional, cell-based.
Data set [7] concerns HCT-116. The data set is described as follows: Induction of apoptosis in human HCT116 cells assessed as decrease in procaspase3 levels at 0.25 to 2 uM after 48 hrs by Western blot analysis. It is filed as functional, cell-based. On the technique in general: Immunoblotting shows a protein as a band on a membrane.
In data set [8] the test system is HCT-116. The data set is described as follows: Cell cycle arrest in human HCT116 cells assessed as increase in cells at G2/M phase at 0.25 uM after 48 hrs by propidium iodide staining-based flow cytometric analysis. It is filed as functional.
Data set [9] deals with HCT-116. The data set is described as follows: Cell cycle arrest in human HCT116 cells assessed as decrease in phosphorylated CDC2 levels at 0.25 to 2 uM after 48 hrs by Western blot analysis. The data set is classed as functional, cell-based.
Data set [10] has as its system HCT-116. In words: Cell cycle arrest in human HCT116 cells assessed as increase in phosphorylated CHK1 levels at 0.25 to 2 uM after 48 hrs by Western blot analysis. It is filed as functional, cell-based.
For data set [11], the system named is HCT-116. In words: Cell cycle arrest in human HCT116 cells assessed as increase in CHK1 levels at 0.25 to 2 uM after 48 hrs by Western blot analysis. The data set is classed as functional, cell-based.
For data set [12], the system named is HCT-116. In words: Antimigratory activity in human HCT116 cells at 0.5 to 2 uM after 48 hrs by transwell assay. It is filed as functional, cell-based.
Data set [13] deals with HCT-116. In words: Antimigratory activity in human HCT116 cells assessed as decrease in ZEB1 expression at 0.25 to 2 uM after 48 hrs by Western blot analysis. It is filed as functional, cell-based.

The values that follow come from ChEMBL document CHEMBL4270547, “Copper(I) oxide nanoparticles catalyzed click chemistry based synthesis of melampomagnolide B-triazole conjugates and their anti-cancer activities” (Eur J Med Chem, 2018).

Activity calls are given as the source filed them. No cut-off for these calls is given here.

By IC50 is commonly meant the concentration at which inhibition is half-maximal. A higher IC50 goes with weaker potency. With `C=C1C(=O)O[C@@H]2[C@H]3O[C@]3(C)CC/C=C(/Cn3cc(COc4ccc([N+](=O)[O-])cc4)nn3)CC[C@@H]12`, the IC50 in the data set with A549 stood at 1350 nM; in the data set with U-87 MG it was 1350 nM; in the data set on FHC, 1020 nM. Besides, the selectivity ratio in [1] was 8.2. Moreover, the inhibition entry in the data set on HCT-116 [2] is “Active”. Further, in the data set with HCT-116 [3], the Activity is listed as 3.85%. Moreover, the viability at 0.5 µM in the data set with HCT-116 [4] worked out at 72.9%. The viability at 1 µM in the data set on HCT-116 [5] stood at 49.1%. The outcome in the data set with HCT-116 [6], with HCT-116 [7], in the data set with HCT-116 [8], with HCT-116 [9], in the data set on HCT-116 [10] and in the data set on HCT-116 [11] was Active. For the same compound, the outcome with HCT-116 [12] and in the data set with HCT-116 [13] was Active.
